We go through six compounds from patent EP0584290B1, “ENDOTHELIN ANTAGONISTS” (WARNER-LAMBERT COMPANY, priority 1991, dated 1992).

Square brackets hold non-standard residues; d marks the D form. Ends that are not written are not given here. Peptide text beside a SMILES is read from it. d1Nal = N[C@H](Cc1cccc2ccccc12)C(=O)O

In test [1] the target is endothelin receptor, rat heart ventricle. The test is described as follows: [125I]-ET-1 binding assay in rat heart ventricle. The following applies: [125I]-ET-1, rat heart ventricle (10 µg), 37°C, 2 hours. Here is the method: (§1) The compounds of Formula I are valuable antagonists of endothelin. […] Thus, the compounds of Formula I were tested for their ability to inhibit [^125I]-ET-1([^125I]-Endothelin-1) binding in a receptor assay. The binding of the compounds of Formula I is determined by incubation (37°C, 2 hours) of a compound of Formula I with [^125I]-ET-1 and the tissue (rat heart ventricle (10 µg)) in 50 mM Tris(hydroxymethyl)aminomethane hydrochloride (Tris-HCl) (pH 7.4), 5 mM ethylenediamine tetraacetic acid (EDTA), 2 mM ethylene glycol bis(β-aminoethyl ether)N,N,N',N'-tetraacetic acid (EGTA), 100 µM phenylmethylsulfonyl fluoride (PMSF), and 100 µM bacitracin containing protease inhibitors (total volume of 0.5 mL). IC50 values are calculated by weighing nonlinear regression curve-fitting to the mass-action (Langmuir) equation. The functional activity of compounds of Formula I is determined in Rat-1 cells by measuring intracellular levels of second messengers. Thus, cells were prelabeled with [^3H]-inositol and endothelin-stimulated accumulation of total [^3H]-inositol phosphates in the presence of Li^+ is monitored using anion exchange chromatography as described by Muldoon, L. L., et al, Journal of Biological Chemistry, Volume 264, pages 8529-8536 (1989) and Dudley, D. T., et al, Molecular Pharmacology, Volume 38, pages 370-377 (1990). Antagonist activity is assessed as the ability of added compounds to reduce endothelin-stimulated inositol phosphate accumulation. Antagonist activity was also measured by the ability of added compounds to reduce endothelin-stimulated arachidonic acid release in cultured vascular smooth muscle cells as (AAR) described in Reynolds, E., Mok, K., Faseb J., 1991, 5, A1066. The data in the table show the endothelin antagonist activity of representative compounds of Formula I. TABLE 1

Test [2] concerns ET receptor. The following applies: relative to ET-1; cited from earlier work.
The target of test [3] is T1, Rat-1 cells (Rattus norvegicus, UniProt P26684).
T1 sequence (P26684 21-426): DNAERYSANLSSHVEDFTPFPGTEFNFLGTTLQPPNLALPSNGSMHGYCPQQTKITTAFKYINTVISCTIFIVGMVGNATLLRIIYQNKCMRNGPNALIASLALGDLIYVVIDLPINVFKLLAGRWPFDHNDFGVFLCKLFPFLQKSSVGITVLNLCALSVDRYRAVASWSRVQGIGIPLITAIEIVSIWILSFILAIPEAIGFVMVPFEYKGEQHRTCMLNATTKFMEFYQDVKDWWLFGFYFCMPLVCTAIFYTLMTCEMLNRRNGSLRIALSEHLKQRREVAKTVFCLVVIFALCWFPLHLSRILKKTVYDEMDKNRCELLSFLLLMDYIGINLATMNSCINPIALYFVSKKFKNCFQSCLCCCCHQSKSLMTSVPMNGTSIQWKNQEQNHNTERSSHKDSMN
The test is described as follows: Endothelin-stimulated inositol phosphate (IP) accumulation in Rat-1 cells. Format: cell-based. As for the experimental part:
as §1, with “Antagonist activity is assessed as the ability of added compounds to reduce endothelin-stimulated inositol phosphate accumulation. Antagonist activity was also measured by the ability of added compounds to reduce endothelin-stimulated arachidonic acid release in cultured vascular smooth muscle cells as (AAR) described in Reynolds, E., Mok, K., Faseb J., 1991, 5, A1066. The data in the table show the endothelin antagonist activity of representative compounds of Formula I. TABLE 1” left out

In general, IC50 refers to the concentration that inhibits the measured activity by half. Low readings indicate greater potency in that assay, high ones weaker potency in that assay. `CC[C@H](C)[C@H](NC(=O)[C@H](CC(=O)O)NC(=O)[C@H](CC(C)C)NC(=O)[C@@H](Cc1ccccc1)NC(C)=O)C(=O)N[C@H](C(=O)N[C@@H](Cc1c[nH]c2ccccc12)C(=O)O)[C@@H](C)CC` [Example 1, Ac-D-Phe-Leu-Asp-Ile-Ile-Trp] (Ac-[dF]LDIIW-OH) gave an IC50 in test [1] of 0.72 µM. On the same count and under the same terms, the same measure for `CC[C@H](C)[C@H](NC(=O)[C@H](CC(=O)O)NC(=O)[C@@H](Cc1ccccc1)NC(C)=O)C(=O)N[C@H](C(=O)N[C@@H](Cc1c[nH]c2ccccc12)C(=O)O)[C@@H](C)CC` [Example 11, Ac-D-Phe-Asp-Ile-Ile-Trp] (Ac-[dF]DIIW-OH): 2.15 µM.

As to “ET[1-20]: ET-1 analogue without the C-terminal amino acid (Trp-21) (CSCSSLMDKECVYFCHLDII; not fully specified (bridges); ends and bridges not checked; UniProt P05305 53-72, looked up, fragment)”, the less functional activity result in test [2] is listed as “approximately 1000 fold”. Usually inhibition stands for the percentage by which the read-out fell short of the control. A lower inhibition goes with little suppression. As to `CC[C@H](C)[C@H](NC(=O)[C@H](CC(=O)O)NC(=O)[C@H](CC(C)C)NC(=O)[C@H](N)Cc1cccc2ccccc12)C(=O)N[C@H](C(=O)N[C@@H](Cc1c[nH]c2ccccc12)C(=O)O)[C@@H](C)CC` [Example 4, D-1-Nal-Leu-Asp-Ile-Ile-Trp] (H-[d1Nal]LDIIW-OH), the inhibition at 50 µM in test [3] stood at 53%. `CC[C@H](C)[C@H](NC(=O)[C@H](CC(=O)O)NC(=O)[C@H](CC(C)C)NC(=O)[C@@H](Cc1ccccc1)NC(C)=O)C(=O)N[C@@H](Cc1c[nH]c2ccccc12)C(=O)O` [Example 6, Ac-D-Phe-Leu-Asp-Ile-Trp] (Ac-[dF]LDIW-OH) yielded an IC50 in test [1] of 24.5 µM. The same measure, in the same setting: the value for `CC[C@@H](C)[C@@H](NC(=O)[C@@H](NC(=O)[C@@H](CC(=O)O)NC(=O)[C@H](CC(C)C)NC(=O)[C@@H](Cc1c[nH]cn1)NC(C)=O)[C@@H](C)CC)C(=O)N[C@@H](Cc1c[nH]c2ccccc12)C(=O)O` [Example 7, Ac-D-His-Leu-D-Asp-Ile-D-Ile-Trp] (Ac-[dH]L[dD]I[dI]W-OH) was 6.03 µM.
